{"source": "patent US20090155241A1", "about": "“Prophylactic/therapeutic agent for cancer” (JAPANESE FOUNDATION FOR CANCER RESEARCH, priority 2005, published 2009)", "key": {"[1]": {"tested_on": "p53-mutated cancer cells (NCI-H23, DMS114, HCT-15, KM-12, SF268, U251)", "experiment": "Cell growth inhibition, CellTiter 96 AQueous One, p53-mutated cancer cells", "type": "cell-based, human", "details": "4 or 8 μM, 48 hours, RPMI-1640; FIG. 3A", "method": "(§1) NCI-H23, DMS114, HCT-15, KM-12, SF268 and U251 cells, which are p53-mutated cancer cells, were incubated in RPMI-1640 medium containing 4 or 8 μM Triacsin c for 48 hours. On the other hand, human normal cell lines TIG108, TIG109, ASF4-1, CCD33Co and TIG114 cells were incubated in MEM containing 4 or 8 μM Triacsin c for 48 hours. After completion of the incubation, 20 μl of CellTiter 96AQueous One Solution Cell Proliferation Assay Kit (manufactured by Promega Corp.) was added and reacted for an hour. Absorbance was then measured at 490 nm.\n(§2) The results are shown by % based on absorbance in the absence of Triacsin c."}, "p53-mutated cancer cells": {"tested_on": "p53-mutated cancer cells", "experiment": "Caspase activation as index of apoptosis induction (Ac-DEVD-MCA substrate)", "type": "cell-based, human", "details": "8 μM, 30 hours, RPMI medium; FIG. 3B", "method": "(§3) In order to examine if the cell growth inhibitory effect by Triacsin c was induced by apoptosis, the caspase activation was measured as an index of the apoptosis induction using acetyl-Asp-Glu-Val-Asp-(4-methylcoumaryl-7-amide) as a substrate."}, "SF268/ACS5 cells [2]": {"tested_on": "SF268/ACS5 cells", "experiment": "Caspase activation in ACS5-expressing SF268 cells", "type": "cell-based, human", "details": "with expression of ACS5; FIG. 4D", "method": "as §3\n(§4) In addition, the caspase activation as an index of apoptosis was examined."}, "SF268/ACS5 cells [3]": {"tested_on": "SF268/ACS5 cells", "experiment": "Cell growth inhibition in ACS5-expressing SF268 cells", "type": "cell-based, human", "details": "FIG. 4C", "text": "To examine if the p53-mutated cancer cell-selective apoptosis by Triacsin c was induced by ACS activity inhibition, cells stably expressing Triacsin c-resistant ACS isozyme ACS5 were established as follows. The retroviral vector pHa-ACS5—FLAG-IRES-DHFR constructed in EXAMPLE 4(1) and empty vector pHa-IRES-DHFR were introduced into mouse fibroblast PA317 using mammalian transfection kit (Stratagene) to give viral stock. The resulting viral stock was further infected into human glioma SF268 cells and selected with 100 ng/ml of methotrexate as a selective agent to give the stably expressing strain SF268/ACS5 and SF268/mock for control. The cell extract from each cell was analyzed by western blot using anti-FLAG-M2 antibody (Sigma) (and anti-tubulin antibody (Sigma) for control).\nas §4"}, "ACS": {"tested_on": "ACS", "experiment": "Intracellular ACS activity in cell extract ([14C]-palmitic acid)", "type": "cell-based, human", "details": "4 μM, 24 hours, FIG. 4B", "method": "The ACS activity was assayed by the method of Banis, et al. (Biochem. Biophys. Acta, 348, 210-220, 1974). To the cell extract (100 μl) obtained by homogenization, 1.2 μmol magnesium chloride, 5 μmol ATP, 3 μmol potassium fluoride, 0.1 μmol coenzyme A, 3 μmol 2-mercaptoethanol, 0.03 μmol palmitic acid and 0.1 μCi [^14C]-palmitic acid (150 μl) were added and the mixture was reacted at 37° C. for 5 minutes. After the reaction was terminated by adding 2.25 ml of isopropanol-heptane-1M sulfuric acid (40:10:1), 1.5 ml of heptane and 1 ml of water were added and the upper layer was removed. The lower layer containing [^14C]-palmitoyl CoA produced after the reaction was washed twice with 2 ml of heptane-8 mg of palmitic acid, and the ^14C level was measured using a liquid scintillation counter.\nThe ACS activities of SF268/mock cells and SF268/ACS5 cells were assayed by the method described in EXAMPLE 4(3)."}, "[4]": {"tested_on": "Human lung cancer NCI-H23", "experiment": "Growth inhibitory effect in nude mice bearing p53-mutated cancer", "type": "in vivo, BALB/cAJcl-nu nude mice", "method": "In order to examine the p53-mutated cancer growth inhibitory effect by apoptosis induction via Triacsin c-induced ACS activity inhibition in vivo, a test for administering p53-mutated cancer-bearing nude mice was performed. Human lung cancer NCI-H23 was used as the p53-mutated cancer cell line and implanted subcutaneously into BALB/cAJcl-nu nude mice (9 weeks old). On day 0 when the tumor volume reached 50-150 mm^3, 40 μl (30 mg/kg/day) of Triacsin c was administered by intratumoral injection (n=5). Triacsin c was administered for 3 consecutive days on days 0, 1 and 2. For control group, 40 μl of saline was administered by the same dosing schedule (n=5). For evaluation of tumor volume, the length (L) and width (W) of the tumor were measured, and the tumor volume (TV) was calculated as TV=L×W×W/2. Relative tumor volume was determined as the value when a mean value of the tumor volume on day 0 in control group was made 1. Tumor growth was measured for 21 days after drug administration. Statistical significance was determined with a Student t test."}, "[5]": {"tested_on": "human normal cell lines TIG108, TIG109, ASF4-1, CCD33Co and TIG114", "experiment": "Cell growth inhibition, CellTiter 96 AQueous One, human normal cell lines", "type": "cell-based", "details": "4 or 8 μM, 48 hours, MEM; FIG. 3A", "method": "as §1, §2"}, "[6]": {"tested_on": "fatty acid metabolizing enzyme ACS", "details": "Biochem. Biophys. Acta, 921, 595-598, 1987; cited from earlier work"}, "SF268 cells": {"tested_on": "SF268 cells", "experiment": "Cell growth inhibition in SF268 cells", "type": "cell-based, human", "details": "about 4 μM (1 to 4 μM), treated for 48 hours; FIG. 4C", "method": "as §1, §4"}, "[7]": {"tested_on": "SF268/ACS5 and SF268/mock cells", "experiment": "Cell viability after anticancer drug treatment, SF268/mock and SF268/ACS5", "type": "cell-based, human", "details": "48 hours; etoposide 1, 3 or 10 µg/ml, 5-fluorouracil 30, 100 or 300 µg/ml; FIG. 6A", "method": "Changes of anticancer drug sensitivity in cancer cells by expression of ACS5 were examined. After 1, 3 or 10 µg/ml of etoposide or 30, 100 or 300 µg/ml of 5-fluorouracil was added to SF268/ACS5 established in EXAMPLE 4(2), which are cells capable of stably and highly expressing ACS5, and SF268/mock cells for control, incubation was performed in RPMI-1640 medium for 48 hours. After adding 20 μl of CellTiter 96AQueous One Solution Cell Proliferation Assay Kit (manufactured by Promega) and reacting for an hour, the cell viability was determined by measuring absorbance at 490 nm and expressed by % based on the value when no etoposide was added or no 5-fluorouracil was added (FIG. 6A)."}}, "data": [{"smiles": "CCCC=CCC=CC=CC=NN=NO", "note": "[Triacsin c, 1-Hydroxy-3-undeca-2,4,7-triene-1-ylidenetriaz-1-ene]", "values": [{"measurement": "cell growth inhibitory effect", "setting": "[1]", "result": "potent cell growth inhibitory effect"}, {"measurement": "caspase activation", "setting": "p53-mutated cancer cells", "result": "strong activation of caspase"}, {"measurement": "caspase activation", "setting": "SF268/ACS5 cells [2]", "result": "strongly counteracted"}, {"measurement": "Triacsin c-induced cell growth inhibitory effect", "setting": "SF268/ACS5 cells [3]", "result": "almost completely cancelled"}, {"measurement": "intracellular ACS activity", "setting": "ACS; SF268/ACS5 cells (ACS5-overexpressed)", "result": "any significant reduction of the ACS activity was not observed"}, {"measurement": "intracellular ACS activity", "setting": "ACS; SF268/mock cells", "result": "markedly reduced"}, {"measurement": "tumor volume versus control group", "setting": "[4]; 30 mg/kg/day intratumoral injection, days 0, 1 and 2, measured for 21 days, p<0.05, FIG. 5", "result": "significant tumor regression effect"}, {"measurement": "weight loss", "setting": "[4]; cancer-bearing nude mice, 30 mg/kg/day intratumoral, 3 consecutive days", "result": "any weight loss was not observed"}, {"measurement": "cell growth inhibitory effect", "setting": "[5]", "result": "no cell growth inhibitory effect was observed"}, {"measurement": "inhibition activity against ACS", "setting": "[6]", "result": "specific inhibition activity"}, {"measurement": "cell growth", "setting": "SF268 cells", "result": "strongly inhibited the growth"}]}, {"smiles": "COc1cc([C@@H]2c3cc4c(cc3[C@@H](O[C@@H]3O[C@@H]5CO[C@@H](C)O[C@H]5[C@H](O)[C@H]3O)[C@H]3COC(=O)[C@H]23)OCO4)cc(OC)c1O", "note": "[etoposide]", "values": [{"measurement": "cell viability in SF268/ACS5 as compared to SF268/mock", "setting": "[7]", "result": "significantly high cell viability"}, {"measurement": "growth inhibitory effect (cell viability)", "setting": "[7]", "result": "growth inhibitory effect was produced concentration-dependently"}]}, {"smiles": "O=c1[nH]cc(F)c(=O)[nH]1", "note": "[5-fluorouracil]", "values": [{"measurement": "cell viability in SF268/ACS5 as compared to SF268/mock", "setting": "[7]", "result": "significantly high cell viability"}, {"measurement": "growth inhibitory effect (cell viability)", "setting": "[7]", "result": "growth inhibitory effect was produced concentration-dependently"}]}]}
